# Results reported in patent US8957087B2, “Heterocyclic substituted acardite derivate and application thereof” (Jiangsu Provincial Institute of Materia Medica Co., Ltd., priority 2009, dated 2015).
# Experiments:
# [1] = tested on: Raf-1(truncated); experiment: Raf-1 inhibitor screening by chemoluminescence method; format: biochemical; conditions: Final concentration 1 x 1.0*10^−5 mol/ml
# Source text: 1. Inhibitory activity of the compound of the present invention on raf kinase
# Raf-1 inhibitor screening by chemoluminescence method
# Westernblot electrophoresis apparatus Rotaryshaker
# Raf-1(truncated), Magnesium/ATP Cocktail, MEK1 unactive
# [2] = tested on: human lung cancer cell strain A549; experiment: MTT assay, inhibition of growth of human lung cancer cell strain A549; format: cell-based
# Description: 4. Using 3-(4,5-dimethylthiazol-2-yl)-2,5-diphenyl tetrazolium bromide assay (MTT) to detect the inhibition effects on the growth of human lung cancer cell strain A549
# [Test materials] MTT working solution, F12 medium containing 10% FBS, continuous injectors
# (§1) [Tested compound] Compounds 1-38
# (§2) [Positive control medicine] Sorafenib, compounds A′, B′, C′ with no substituent or only amino formyl in A ring
# The inhibition rate is calculated as follows:
# (§3) Relative OD value of conrol well=OD value of control well−OD value of blank well
# (§4) Relative OD value of drug well=OD value of drug well−OD value of blank well
# [3] = tested on: human high-metastic lung cancer cell 95D; experiment: Inhibition of human high-metastic lung cancer cell 95D migration (Boyden Chamber Transwell); format: cell-based; conditions: Final concentration 1 x 1.0*10^(−5) mol/L
# Description: 5 Inhibition effects of compounds on human high-metastic lung cancer cell 95D migration
# [Test materials] Boyden Chamber Transwell chamber (with pore size of 8 μm), human high-metastic lung cancer cell 95D cell strain, 1640 medium containing 10% FBS, 1640 medium containing no serum
# as §1, §2
# (§5) The inhibition rate is calculated as follows: […]
# [4] = tested on: lung cancer cell A549; experiment: Effects on the adhesive ability of lung cancer cell A549; format: cell-based, human; conditions: Final concentration 1 x 1.0*10^(−5) mol/L
# Description: 6. Effects of tested compounds on the adhesive ability of lung cancer cell A549
# [Test materials] gelatin, CCK8, poly-lysine (PLL), A549 cell stains, 1640 medium containing 10% FBS
# (§6) [Tested compound] Compounds 1-38 to be tested
# as §2, §5
# Dosing dosing cells without cell group (gelatin adhesive OD/PLL adhesion OD)−Dosing cell group (gelatin adhesive OD/PLL adhesion OD value)
# Dosing dosing cells without cell group (gelatin adhesive OD/PLL adhesion OD value)
# [5] = tested on: human umbilical vein endothelial cell HUVEC; experiment: Growth of human umbilical vein endothelial cell HUVEC by CCK8 method; format: cell-based; conditions: Final concentration 1 x 1.0*10^(−5) mol/L
# Source text: 7. Effects of tested compounds on the growth of human umbilical vein endothelial cell HUVEC cell by CCK8 method
# [Test materials] CCK8, human umbilical vein endothelial cell HUVEC cell, 1640 medium containing 10% FBS
# as §6, §2, §3, §4
# [6] = tested on: human umbilical vein endothelial cell HUVEC; experiment: Lumen formation ability of HUVEC (Matrigel method); format: cell-based; conditions: Final concentration 1 x 1.0*10^(−5) mol/L
# Source text: 8. Inhibition effects of compounds on the lumen formation ability of human umbilical vein endothelial cell HUVEC
# [Experimental principles] The human umbilical vein endothelial cells have ability of spontaneously forming blood lumen on Matrigel, which can be used to simulate the process of angiogenesis in vivo. We used Matrigel method to investigate the effects of the compound on the lumen formation ability of human umbilical vein endothelial cell HUVEC.
# [Test materials] HUVEC (taking generation 3 to 5 cells for experiments after obtained from primary separation and cultured at 37 under the conditions of 5% CO2), Matrigel, cell culture medium M199.
# as §1, §2, §5
# [7] = tested on: human lung cancer A549 transplantation tumor; format: in vivo; conditions: BALB/cA nude mice; 60 mg/kg, 6 times every week for 3 weeks; Sorafenib oral 60 mg/kg
# Description: 9. Tumor inhibition rate of tested compounds on human lung cancer A549 cell transplantation model in nude mice
# (§7) [Test animals] female BALB/cA nude mice, 35-40 days old, with weight of 18-22g. There were 12 mice in the negative conrol group and 6 mice in the treatment group.
# (§8) The dosage of the compound was 60 mg/kg, 6 times every week for 3 weeks. […] Equal amount of normal saline was administrated in the negative control group. Observe for one week after administration.
# [8] = tested on: human liver cancer cell bel-7402 transplantation tumor; format: in vivo; conditions: BALB/cA nude mice; 60 mg/kg, 6 times every week for 3 weeks; Sorafenib oral 60 mg/kg
# Description: 10. Tumor inhibition rate of tested compounds on human liver cancer cell bel-7402 transplantation tumor model in nude mice
# as §7, §8
# [9] = tested on: renal carcinoma cell line GCR-1 transplanted tumor; format: in vivo, BALB/cA nude mice; conditions: BALB/cA nude mice; 60 mg/kg, 6 times every week for 3 weeks; Sorafenib oral 60 mg/kg
# Description: 11. Tumor inhibition rate of medicines on renal carcinoma cell line GCR-1 transplanted tumor model in nude mice
# as §7
# [Test method] […] The dosage of the medicine was 60 mg/kg, 6 times every week for 3 weeks. […] Equal amount of normal saline was administrated in the negative control group. Observe for one week after administration.
# [10] = tested on: mice S180 sarcoma; experiment: Experimental therapeutic action on S180 sarcoma mice; conditions: mice S180 sarcoma, 60 mg/kg orally for 9 days
# [11] = tested on: Human colon cancer HT-29 transplantable tumor; experiment: Human colon cancer HT-29 transplantable tumor in nude mice; conditions: HT-29 in nude mice, 60 mg/kg ig 9 times
Compound,Inhibition rate % on raf kinase [1] [%],"Inhibition rate, growth of human lung cancer cell A549 [2] [%]","Inhibition rate, 95D cell strain migration [3] [%]","Inhibition rate, adhesion ability of human lung cancer cell A549 [4] [%]","Inhibition rate, growth of HUVEC cell [5] [%]","Inhibition rate, lumen formation ability of HUVEC [6] [%]",Relative tumor reproduction rate T/C (%) on human lung cancer A549 transplantation tumor in nude mice [7] [%],Relative tumor reproduction rate T/C (%) on human liver cancer cell bel-7402 transplantation tumor model in nude mice [8] [%],Relative tumor reproduction rate T/C (%) on human renal carcinoma GCR-1 cell transplanted tumor model in nude mice [9] [%],Tumor growth inhibition rate (%) [10] [%],Relative tumor reproduction rate T/C (%) [11] [%]
"O=C(Nc1ccc(Oc2ncnc3cc(F)ccc23)cc1)Nc1ccc(Cl)c(C(F)(F)F)c1 [Compound 19, N-(4-chloro-3-(trifluoromethyl)phenyl)-N′-(4-(4-(7 fluoroquinazolinyl)oxy)phenyl)urea]",93.5,91.23,90.21,90.28,5.23,89.22,7.7,16.3,13.2,50.8,39.4
"O=C(Nc1ccc(Oc2ncnc3cc(F)ccc23)cc1)Nc1ccc(F)c(C(F)(F)F)c1 [Compound 20, N-(4-fluoro-3-(trifluoromethyl)phenyl)-N′-(4-(4-(7 fluoroquinazolinyl)oxy)phenyl)urea]",87.7,88.32,89.12,95.31,7.32,88.54,12.1,17.2,13.1,54.6,40.1
"O=C(Nc1ccc(Oc2ncnc3cc(F)ccc23)cc1)Nc1ccc(Br)c(C(F)(F)F)c1 [Compound 21, N-(4-bromo-3-(trifluoromethyl)phenyl)-N′-(4-(4-(7 fluoroquinazolinyl)oxy)phenyl)urea]",98.9,89.21,88.76,90.22,11.21,89.47,13.7,16.4,7.8,59.7,38.7
"COc1ncncc1Oc1ccc(NC(=O)Nc2ccc(Cl)c(C(F)(F)F)c2)cc1 [Compound 22, N-(4-chloro-3-(trifluoromethyl)phenyl)-N′-(4-(5-(4-methoxypyrimidinyl)oxy)phenyl)urea]",88.1,82.49,88.77,72.44,12.49,86.72,15.3,15.3,8.1,52.1,41.2
"COc1ncncc1Oc1ccc(NC(=O)Nc2ccc(F)c(C(F)(F)F)c2)cc1 [Compound 23, N-(4-fluoro-3-(trifluoromethyl)phenyl)-N′-(4-(5-(4-methoxypyrimidinyl)oxy)phenyl)urea]",89.9,55.41,85.53,77.56,17.41,97.56,17.1,17.7,9.1,51.5,39.7
"COc1ncncc1Oc1ccc(NC(=O)Nc2ccc(Br)c(C(F)(F)F)c2)cc1 [Compound 24, N-(4-bromo-3-(trifluoromethyl)phenyl)-N′-(4-(5-(4-methoxypyrimidinyl)oxy)phenyl)urea]",91.3,86.32,85.48,73.30,13.32,93.78,15.6,16.8,10.8,54.6,37.8
"Nc1ccc2c(Oc3ccc(NC(=O)Nc4ccc(Cl)c(C(F)(F)F)c4)cc3)cncc2c1 [Compound 25, N-(4-chloro-3-(trifluoromethyl)phenyl)-N′-(4-(4-(7-amino-isoquinolyl)oxy)phenyl)urea]",11.5,63.26,59.76,63.51,23.26,79.79,39.4,29.1,31.2,55.8,79.5
"Nc1ccc2c(Oc3ccc(NC(=O)Nc4ccc(F)c(C(F)(F)F)c4)cc3)cncc2c1 [Compound 26, N-(4-fluoro-3-(trifluoromethyl)phenyl)-N′-(4-(4-(7-amino-isoquinolyl)oxy)phenyl)urea]",15.3,55.50,60.52,68.57,32.50,70.53,33.1,36.1,24.2,7.6,41.1
